Results: patent US20230227466A1, “SUBSTITUTED THIENOPYRIMIDINES THAT INTERACT WITH THE RAS SUPERFAMILY FOR THE TREATMENT OF CANCERS, INFLAMMATORY DISEASES, RASOPATHIES, AND FIBROTIC DISEASE” (SHY Therapeutics, LLC, priority 2020, published 2023)
Read-outs that look alike come from different tables or passages of the source.

Tests used:
[1] = system: MIA-PaCa-2 pancreatic cancer cell line (KRAS G12C); assay: Cell proliferation assay (CellTiter 96 Aqueous One); format: cell-based; details: Homo sapiens; for IC50: MIA PaCa-2, MIA PaCa-2; for inhibition at 10 µM: MIA PaCa-2, read-out: % inh cell proliferation (10 μM) in MIA PaCa-2
Summary of the method: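 After overnight attachment, compounds are added (10 μM final or serial dilutions) and left 2–4 days, with viability then measured by MTS.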

Rho-A = Rho-A (Homo sapiens, UniProt P61586); assay: Ras GTP binding domain inhibition assay (labeled-GTP competition, cell-free); design: made in house
Summary of the method: (§1)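 First, the His-tagged protein was captured overnight at 4° C on nickel wells. Second, compound was applied at 20 μM or as a dilution series for IC50 over 3 h. Third, 100 nM Cy3- or Cy5-GTP was added for 45 min. Finally, wells were washed and bound label quantified.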

KRas wild type = KRas wild type (Homo sapiens, UniProt P01116); assay: as above; design: made in house
Summary of the method: as §1

Rac-1 = Rac-1 (Homo sapiens, UniProt P63000); assay: as above; design: made in house
Summary of the method: as §1

[2] = system: ERK1/2 phosphorylation in Panc-1 cells; assay: Western ERK1/2 cell-based phosphorylation assay; design: species or system human; details: at 10 μM, values in brackets < > are activation %, not inhibition
Summary of the method: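 Panc-1 cells starved overnight in 0.5% FBS, then exposed 6 h at 37 °C to compound at 10 μM final (0.3% DMSO) or serial dilutions for IC50. Stimulation with 1.5 ng/ml EGF for 15 min; phospho-ERK1/2 (Thr202/Tyr204) read by western blot on equal protein loads.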

[3] = without SOS, read-out: Rho-A: % inh.
[4] = with SOS, read-out: KRas wild type + SOS: % inh.
[5] = without SOS, read-out: KRas wild type: % inh.
[6] = without SOS, read-out: Rac-1: % inh.
[7] = with SOS, read-out: Rho-A + SOS: % inh.
[8] = with SOS, read-out: Rac-1 + SOS: % inh.

| IC50 [1] | inhibition at 20 µM (Rho-A; [3]) | inhibition at 20 µM (KRas wild type; [4]) | inhibition at 20 µM (KRas wild type; [5]) | inhibition at 20 µM (Rac-1; [6]) | inhibition at 20 µM (Rho-A; [7]) | inhibition at 20 µM (Rac-1; [8]) | Compound | inhibition at 10 µM [1] | % inh of ERK1/2 phosphorylation in PANC-1 [2] |
| --- | --- | --- | --- | --- | --- | --- | --- | --- | --- |
| 1 to 4.99 µM | 51 to 75% | 76 to 100% | 1 to 25% | 1 to 25% |  |  | CO[C@H]1CC[C@@H](Nc2nc(-c3nccn3C)nc3sc(-c4ccn(C(C)C)n4)c(C(F)(F)F)c23)C1 (racemic) [Compound 73, Rac-6-(1-isopropyl-1H-pyrazol-3-yl)-N-((1R,3S)-3-methoxycyclopentyl)-2-(1-methyl-1H-imidazol-2-yl)-5-(trifluoromethyl)thieno[2,3-d]pyrimidin-4-amine] | 76 to 100% | D (76-100% inhibition) |
| > 10 µM | 1 to 25% | 1 to 25% | 1 to 25% | 1 to 25% | 1 to 25% | 1 to 25% | O=C(c1nc(O)c2scc(-c3ccccn3)c2n1)N1CCOCC1 [Compound 22, (4-Hydroxy-7-(pyridin-2-yl)thieno[3,2-d]pyrimidin-2-yl)(morpholino)methanone] | 1 to 25% | 0 (0% inhibition) |
| 5 to 10 µM | 76 to 100% | 26 to 50% | 26 to 50% | 0% |  |  | COCC1CCN(c2nc(-c3ccccn3)nc3sc(-c4ccn(C(C)C)n4)c(C)c23)C1 (racemic) [Compound 71, Rac-6-(1-Isopropyl-1H-pyrazol-3-yl)-4-(3-(methoxymethyl)pyrrolidin-1-yl)-5-methyl-2-(pyridin-2-yl)thieno[2,3-d]pyrimidine] | 76 to 100% | D (76-100% inhibition) |
| > 10 µM | 1 to 25% | 1 to 25% | 0% | 0% | 1 to 25% | 0% | CO[C@H]1CC[C@@H](Nc2nc(C(N)=O)nc3sccc23)C1 (racemic) [Compound 11, Rac-4-(((1R,3S)-3-methoxycyclopentyl)amino)thieno[2,3-d]pyrimidine-2-carboxamide] | 1 to 25% | 0 (0% inhibition) |
| 5 to 10 µM | 76 to 100% | 76 to 100% | 76 to 100% | 76 to 100% | 76 to 100% | 76 to 100% | COCC1CN(c2nc(-c3nccn3C)nc3sc(-c4ccn(C(C)C)n4)c(C)c23)CCO1 (racemic) [Compound 45, rac-4-(6-(1-Isopropyl-1H-pyrazol-3-yl)-5-methyl-2-(1-methyl-1H-imidazol-2-yl)thieno[2,3-d]pyrimidin-4-yl)-2-(methoxymethyl)morpholine] | 26 to 50% | B (26-50% inhibition) |
| > 10 µM | 26 to 50% | 1 to 25% | 1 to 25% | 0% | 0% | 1 to 25% | CO[C@H]1CC[C@@H](Nc2nc(C(N)=O)nc3sc(-c4ccn(C(C)C)n4)cc23)C1 (racemic) [Compound 17, Rac-6-(1-isopropyl-1H-pyrazol-3-yl)-4-(((1R,3S)-3-methoxycyclopentyl)amino)thieno[2,3-d]pyrimidine-2-carboxamide] | 1 to 25% | A (1-25% inhibition) |
| > 10 µM | 1 to 25% | 1 to 25% | 1 to 25% | 1 to 25% | 1 to 25% | 1 to 25% | O=C(Nc1ccccc1)c1nc(O)c2scc(-c3ccccn3)c2n1 [Compound 23, 4-Hydroxy-N-phenyl-7-(pyridin-2-yl)thieno[3,2-d]pyrimidine-2-carboxamide] | 0% | 0 (0% inhibition) |
| 1 to 4.99 µM | 76 to 100% | 76 to 100% | 76 to 100% | 76 to 100% | 76 to 100% | 76 to 100% | CO[C@H]1CC(Nc2nc(-c3nccn3C)nc3sc(-c4ccn(C(C)C)n4)c(C)c23)C[C@@H]1OC (racemic) [Compound 44, rac-N-((3S,4S)-3,4-Dimethoxycyclopentyl)-6-(1-isopropyl-1H-pyrazol-3-yl)-5-methyl-2-(1-methyl-1H-imidazol-2-yl)thieno[2,3-d]pyrimidin-4-amine] | 76 to 100% | D (76-100% inhibition) |
| 5 to 10 µM | 51 to 75% | 51 to 75% | 51 to 75% | 1 to 25% | 51 to 75% | 26 to 50% | CO[C@H]1CC[C@@H](Nc2nc(-c3ccccn3)nc3sc(-c4ccn(C(C)C)n4)c(C)c23)C1 (racemic) [Compound 69, Rac-6-(1-isopropyl-1H-pyrazol-3-yl)-N-((1R,3S)-3-methoxycyclopentyl)-5-methyl-2-(pyridine-2-yl)thieno[2,3-d]pyrimidin-4-amine] | 76 to 100% | D (76-100% inhibition) |
| 5 to 10 µM | 51 to 75% | 51 to 75% | 51 to 75% | 76 to 100% | 76 to 100% | 76 to 100% | COCC1COCCN1c1nc(-c2nccn2C)nc2sc(-c3ccn(C(C)C)n3)c(C)c12 (racemic) [Compound 41, rac-4-(6-(1-Isopropyl-1H-pyrazol-3-yl)-5-methyl-2-(1-methyl-1H-imidazol-2-yl)thieno[2,3-d]pyrimidin-4-yl)-3-(methoxymethyl)morpholine] | 51 to 75% | 0 (0% inhibition) |
| > 10 µM | 0% | 1 to 25% | 0% | 1 to 25% | 0% | 1 to 25% | CO[C@H]1C[C@@H](Nc2nc(-c3nccn3C)nc3sc(-c4ccn(C(C)C)n4)c(C)c23)C1 [Compound 96, 6-(1-isopropyl-1H-pyrazol-3-yl)-N-((1s,3s)-3-methoxycyclobutyl)-5-methyl-2-(1-methyl-1H-imidazol-2-yl)thieno[2,3-d]pyrimidin-4-amine] | 1 to 25% | B (26-50% inhibition) |
| > 10 µM | 76 to 100% | 51 to 75% | 51 to 75% | 51 to 75% |  |  | Cc1c(-c2ccn(C(C)C)n2)sc2nc(-c3nccn3C)nc(NC[C@H]3CCC(=O)N3)c12 [Compound 52, (R)-5-(((6-(1-Isopropyl-1H-pyrazol-3-yl)-5-methyl-2-(1-methyl-1H-imidazol-2-yl)thieno[2,3-d]pyrimidin-4-yl)amino)methyl)pyrrolidin-2-one] | 1 to 25% | 0 (0% inhibition) |
| 5 to 10 µM | 76 to 100% | 51 to 75% | 76 to 100% | 76 to 100% | 76 to 100% | 76 to 100% | Cc1sc2c(O)nc(-c3ccccn3)nc2c1-c1ccccn1 [Compound 26, 6-Methyl-2,7-di(pyridin-2-yl)thieno[3,2-d]pyrimidin-4-ol] | 51 to 75% | 0 (0% inhibition) |
| < 1 µM | 51 to 75% | 76 to 100% | 76 to 100% | 26 to 50% | 51 to 75% | 26 to 50% | CO[C@H]1CC[C@@H](Nc2nc(-c3nccn3C)nc3sc(-c4ccn(C(C)C)n4)c(C)c23)C1 [Compound 32, 6-(1-Isopropyl-1H-pyrazol-3-yl)-N-((1R,3S)-3-methoxycyclopentyl)-5-methyl-2-(1-methyl-1H-imidazol-2-yl)thieno[2,3-d]pyrimidin-4-amine] | 76 to 100% | D (76-100% inhibition) |
|  | 76 to 100% | 51 to 75% | 51 to 75% | 0% |  |  | CO[C@@H]1CCCN(c2nc(-c3nccn3C)nc3sc(-c4ccn(C(C)C)n4)c(C)c23)C1 [Compound 50, (R)-6-(1-Isopropyl-1H-pyrazol-3-yl)-4-(3-methoxypiperidin-1-yl)-5-methyl-2-(1-methyl-1H-imidazol-2-yl)thieno[2,3-d]pyrimidine] | 76 to 100% | D (76-100% inhibition) |
